Reference: PMC3361267 (Journal of Medicinal Chemistry, 2012)
“Also recorded” adds a separate entry of the source. Like-named read-outs stand apart in the source and are kept apart here. *1 amine or outer side, *2 acyl side, *3 side chain or, on linkers, in order; H or OH if unused. Where a SMILES comes first, the peptide text is derived from it. Bridges are numbered along the chain shown (N, C = ends). [ ]: non-standard residue; d: D form. X1 = O=C([C@@H](N[*:1])c1c([*:3])[nH]c2ccccc12)[*:2]; Leu(4R-OH,5-OH) = C[C@](O)(CO)C[C@H](N)C(=O)O; cisHyp = O=C(O)[C@@H]1C[C@H](O)CN1

Assays:
[1] = test system: OATP1B1, OATP1B3, and OATP2B1; test: Classification of specific and general OATP inhibitors; conditions: 20 μM, inhibitor = at least 50% inhibition
[2] = molecular target: T1, OATP1B3 (Homo sapiens, UniProt Q9NPD5); conditions: for classification as OATP1B3 inhibitor/stimulator (single-point): 20 μM
T1 sequence (Q9NPD5 1-702): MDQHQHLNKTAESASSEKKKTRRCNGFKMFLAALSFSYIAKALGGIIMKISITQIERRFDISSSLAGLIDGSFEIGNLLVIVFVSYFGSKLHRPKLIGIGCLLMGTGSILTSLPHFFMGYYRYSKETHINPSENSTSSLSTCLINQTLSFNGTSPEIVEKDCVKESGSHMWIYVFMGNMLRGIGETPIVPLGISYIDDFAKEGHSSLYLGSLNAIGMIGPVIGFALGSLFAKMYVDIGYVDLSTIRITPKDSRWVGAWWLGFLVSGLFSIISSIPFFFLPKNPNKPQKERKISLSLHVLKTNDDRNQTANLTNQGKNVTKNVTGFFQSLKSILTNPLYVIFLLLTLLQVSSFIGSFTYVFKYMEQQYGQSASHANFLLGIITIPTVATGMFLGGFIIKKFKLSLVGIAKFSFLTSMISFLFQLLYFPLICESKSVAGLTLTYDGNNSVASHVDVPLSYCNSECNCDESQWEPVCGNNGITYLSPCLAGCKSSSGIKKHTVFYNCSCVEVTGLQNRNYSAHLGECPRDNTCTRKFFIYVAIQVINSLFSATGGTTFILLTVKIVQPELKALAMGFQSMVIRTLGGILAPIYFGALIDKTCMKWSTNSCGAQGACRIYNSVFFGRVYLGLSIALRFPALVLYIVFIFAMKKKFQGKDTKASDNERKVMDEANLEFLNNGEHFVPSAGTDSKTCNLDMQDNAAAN

[3] = test system: MDR1; conditions: read-out: IC50 (MDR1); cited from earlier work
[4] = test system: MRP2; conditions: read-out: IC50 (MRP2); cited from earlier work
[5] = test system: BCRP; conditions: cited from earlier work
[6] = molecular target: T2, OATP2B1 (Homo sapiens, UniProt O94956); conditions: for classification as OATP2B1 inhibitor/stimulator (single-point): 20 μM
T2 sequence (O94956 1-709): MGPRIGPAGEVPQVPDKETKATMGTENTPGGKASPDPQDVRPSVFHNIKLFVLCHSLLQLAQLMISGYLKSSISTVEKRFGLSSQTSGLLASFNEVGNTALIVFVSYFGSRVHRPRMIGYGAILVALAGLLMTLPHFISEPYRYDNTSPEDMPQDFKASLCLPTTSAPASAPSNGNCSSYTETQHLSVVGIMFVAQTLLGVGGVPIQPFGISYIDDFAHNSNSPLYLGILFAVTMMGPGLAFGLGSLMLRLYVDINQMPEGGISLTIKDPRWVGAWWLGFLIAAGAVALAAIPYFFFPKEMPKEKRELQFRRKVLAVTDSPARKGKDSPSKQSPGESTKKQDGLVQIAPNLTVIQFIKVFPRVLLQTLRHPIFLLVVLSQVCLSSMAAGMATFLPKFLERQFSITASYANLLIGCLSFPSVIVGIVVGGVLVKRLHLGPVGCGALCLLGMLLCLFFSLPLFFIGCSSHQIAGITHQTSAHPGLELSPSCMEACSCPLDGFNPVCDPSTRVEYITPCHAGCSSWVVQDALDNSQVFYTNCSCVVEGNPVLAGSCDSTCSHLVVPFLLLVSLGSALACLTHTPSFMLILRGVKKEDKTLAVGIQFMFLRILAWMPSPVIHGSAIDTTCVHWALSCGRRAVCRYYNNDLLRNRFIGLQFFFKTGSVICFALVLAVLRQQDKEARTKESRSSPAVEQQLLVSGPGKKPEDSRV

[7] = molecular target: T3, OATP1B1 (Homo sapiens, UniProt Q9Y6L6)
T3 sequence (Q9Y6L6 1-691): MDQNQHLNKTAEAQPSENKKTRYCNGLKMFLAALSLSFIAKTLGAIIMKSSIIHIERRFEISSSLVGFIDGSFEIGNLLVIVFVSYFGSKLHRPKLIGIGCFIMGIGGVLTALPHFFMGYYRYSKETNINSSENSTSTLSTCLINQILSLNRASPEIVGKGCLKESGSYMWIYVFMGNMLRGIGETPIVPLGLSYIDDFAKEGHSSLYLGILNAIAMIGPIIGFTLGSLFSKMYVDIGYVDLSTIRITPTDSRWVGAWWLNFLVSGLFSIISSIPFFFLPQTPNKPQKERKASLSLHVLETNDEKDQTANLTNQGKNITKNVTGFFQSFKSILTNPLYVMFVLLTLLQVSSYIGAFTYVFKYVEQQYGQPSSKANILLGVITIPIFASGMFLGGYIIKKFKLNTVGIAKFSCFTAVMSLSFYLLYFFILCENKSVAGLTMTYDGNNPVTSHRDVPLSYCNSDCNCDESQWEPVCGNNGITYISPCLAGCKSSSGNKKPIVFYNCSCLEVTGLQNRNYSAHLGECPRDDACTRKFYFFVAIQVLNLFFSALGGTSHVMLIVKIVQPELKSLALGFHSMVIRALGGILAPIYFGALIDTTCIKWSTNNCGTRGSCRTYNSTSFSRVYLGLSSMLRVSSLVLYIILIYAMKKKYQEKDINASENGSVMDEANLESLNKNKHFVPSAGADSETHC

[8] = molecular target: T2, OATP2B1; test: Transport kinetics of substrate uptake in OATP2B1-HEK293 cells; type: cell-based
[9] = OATP2B1 mediated uptake, HEK293

COc1ccc2c(c1)c(CC(=O)O)c(C)n2C(=O)c1ccc(Cl)cc1 [indometacin, Indomethacin]
OATP inhibitor classification based on single-point inhibition assays [1]: specific inhibitors of one of the OATP transporters

Clc1ccccc1C(c1ccccc1)(c1ccccc1)n1ccnc1 [clotrimazole, Clotrimazole]
classification as OATP1B3 inhibitor/stimulator (single-point) [2]: stimulator

O=C(O)c1cc(/N=N/c2ccc(S(=O)(=O)Nc3ccccn3)cc2)ccc1O [sulfasalazine, Sulfasalazine]
OATP inhibitor classification based on single-point inhibition assays [1]: general OATP inhibitors

CN(C)C(=O)CCSC(SCCC(=O)O)c1cccc(/C=C/c2ccc3ccc(Cl)cc3n2)c1 (stereo not drawn) [MK571]
IC50 [3]: 26 µM | IC50 [4]: 10 µM | IC50 ([5]; read-out: IC50 (BCRP)): 50 µM

CC(NCCC(c1ccccc1)c1ccccc1)c1ccccc1 (stereo not drawn) [fendiline, Fendiline]
classification as OATP2B1 inhibitor/stimulator (single-point) [6]: stimulate

Olmesartan
OATP2B1 Inhib % [6]: -7.9%

C#Cc1cccc(Nc2ncnc3cc(OCCOC)c(OCCOC)cc23)c1 [erlotinib, Erlotinib]
OATP inhibitor classification based on single-point inhibition assays [1]: specific inhibitors of one of the OATP transporters

COc1ccc2c3c([nH]c2c1)[C@H](CC(C)C)N1C(=O)[C@H](CCC(=O)OC(C)(C)C)NC(=O)[C@@H]1C3 [KO143]
concentration that completely inhibits BCRP [5]: 1 µM

C[C@@H]1[C@H](O)[C@@H](C)/C=C/C=C/CC/C=C/C=C/C=C/C=C/C(O[C@H]2O[C@H](C)[C@@H](O)[C@H](N)[C@@H]2O)CC2O[C@](O)(CC(O)C(O)CCC(O)CC(O)CC(O)CC(=O)O[C@H]1C)CC(O)C2C(=O)O (stereo partly drawn) [nystatin, Nystatin]
OATP1B3 Inhib % [2]: 74.9% | OATP2B1 Inhib % [6]: 23.4%

C[C@]12CC[C@H]3[C@@H](CCC4=CC(=O)CC[C@@]43C)[C@@H]1CC[C@@H]2O [testosterone, Testosterone]
classification as OATP2B1 inhibitor/stimulator (single-point) [6]: stimulate

C[C@@H]1NC(=O)[C@H](C[C@@](C)(O)CO)NC(=O)[C@H]2NC(=O)[C@H](C)NC(=O)[C@@H]3C[C@H](O)CN3C(=O)[C@@H](CSc3[nH]c4ccccc4c32)NC(=O)[C@H]([C@@H](C)O)NC1=O [Phalloidin] (cyclo(AT[dC][cisHyp]A[X1][Leu(4R-OH,5-OH)]); thioether 3-6)
OATP1B3 Inhib % ([2]; human): 36.2% | OATP2B1 Inhib % ([6]; human): 24.1%

COc1cccc2c1C(=O)c1c(O)c3c(c(O)c1C2=O)C[C@@](O)(C(=O)CO)C[C@@H]3O[C@H]1C[C@H](N)[C@H](O)[C@H](C)O1 [doxorubicin, Doxorubicin]
OATP inhibitor classification based on single-point inhibition assays [1]: specific inhibitors of one of the OATP transporters

CCc1nn(CCCN2CCN(c3cccc(Cl)c3)CC2)c(=O)n1CCOc1ccccc1 [nefazodone, Nefazodone]
classification as OATP1B1 inhibitor/stimulator (single-point) ([7]; 20 μM): not interacting | classification as OATP1B3 inhibitor/stimulator (single-point) [2]: inhibitor | classification as OATP2B1 inhibitor/stimulator (single-point) [6]: inhibitor

N[C@@H]1C[C@H]1c1ccccc1 (racemic) [Tranylcypromine]
OATP1B1 Inhib % [7]: -9.5% | OATP1B3 Inhib % [2]: -9.3% | OATP2B1 Inhib % [6]: 15.5%

CC[C@]1(O)C[C@H]2CN(CCc3c([nH]c4ccccc34)[C@@](C(=O)OC)(c3cc4c(cc3OC)N(C=O)[C@H]3[C@@](O)(C(=O)OC)[C@H](OC(C)=O)[C@]5(CC)C=CCN6CC[C@]43[C@@H]65)C2)C1 [vincristine, Vincristine]
OATP inhibitor classification based on single-point inhibition assays [1]: specific inhibitors of one of the OATP transporters; also recorded: OATP1B3, only three specific inhibitors | OATP inhibitor classification based on single-point inhibition assays ([1]; listed as Vincristine): specific inhibitor of OATP1B3

O=C(O)C(=O)O.[NH-][C@@H]1CCCC[C@H]1[NH-].[Pt+2] [Oxaliplatin]
OATP1B1 Inhib % [7]: 13.0% | OATP1B3 Inhib % [2]: 9.9% | OATP2B1 Inhib % [6]: 8.2%

CN(C)c1ccc(C=Cc2cc[n+](C)cc2)cc1 [N-methylpyridinium, ASP+]
OATP1B1 Inhib % [7]: 27.9% | OATP1B3 Inhib % [2]: -2.3% | OATP2B1 Inhib % [6]: 12.8%

CC(=O)[C@H]1CC[C@H]2[C@@H]3CCC4=CC(=O)CC[C@]4(C)[C@H]3CC[C@]12C [progesterone, Progesterone]
classification as OATP2B1 inhibitor/stimulator (single-point) [6]: stimulate

CCC(C)(C)C(=O)O[C@H]1C[C@@H](C)C=C2C=C[C@H](C)[C@H](CC[C@@H](O)C[C@@H](O)CC(=O)O)[C@H]21 [simvastatin acid]
OATP inhibitor classification based on single-point inhibition assays [1]: specific OATP1B1 inhibitors

C[C@]12CC[C@@H]3c4ccc(OS(=O)(=O)O)cc4CC[C@H]3[C@@H]1CCC2=O [estrone-3-sulfate]
Km [8, 9]: 38.2 ± 10.2 µM | Vmax [8, 9]: 455.2 ± 55.36 pmol/mg protein/min | mean uptake of model substrate in OATP2B1 expressing HEK293 cells compared to passive uptake in mock-transfected cells ([8]; n = 51 experiments): 44 times

CC[C@H](C)C(=O)O[C@H]1C[C@H](O)C=C2C=C[C@H](C)[C@H](CC[C@@H](O)C[C@@H](O)CC(=O)O)[C@H]21 [pravastatin, Pravastatin]
OATP inhibitor classification based on single-point inhibition assays [1]: specific inhibitors of one of the OATP transporters | OATP inhibitor classification based on single-point inhibition assays ([1]; listed as pravastatin acid): specific OATP1B1 inhibitors

CCOc1ccc(-c2nc3cc(-c4nc5cc(N6CCN(C)CC6)ccc5[nH]4)ccc3[nH]2)cc1 [Hoechst 33342]
OATP inhibitor classification based on single-point inhibition assays [1]: OATP1B3, only three specific inhibitors

cholecystokinin octapeptide [cholecystokinin octapeptide (CCK-8)]
OATP1B3 Inhib % [2]: 96.9% | OATP2B1 Inhib % [6]: 60.1%

O=C1c2c(O)ccc(O)c2C(=O)c2c(NCCNCCO)ccc(NCCNCCO)c21 [mitoxantrone, Mitoxantrone]
OATP inhibitor classification based on single-point inhibition assays [1]: OATP1B3, only three specific inhibitors

CC[C@H](C)C(=O)O[C@H]1C[C@@H](C)C=C2C=C[C@H](C)[C@H](CC[C@@H](O)C[C@@H](O)CC(=O)O)[C@H]21 [lovastatin acid]
OATP inhibitor classification based on single-point inhibition assays [1]: specific OATP1B1 inhibitors

COC(=O)N[C@H](C(=O)N[C@@H](Cc1ccccc1)[C@@H](O)CN(Cc1ccc(-c2ccccn2)cc1)NC(=O)[C@@H](NC(=O)OC)C(C)(C)C)C(C)(C)C [atazanavir, Atazanavir]
OATP inhibitor classification based on single-point inhibition assays [1]: general OATP inhibitors

OCCN1CCN(CCC=C2c3ccccc3Sc3ccc(C(F)(F)F)cc32)CC1 [Flupenthixol]
OATP1B3 Inhib % ([2]; human): 13.5% | OATP2B1 Inhib % ([6]; human): 9.5%
